Assay results published in paper PMC8066339, “Optimization of 2-Acylaminocycloalkylthiophene Derivatives for Activity against Staphylococcus aureus RnpA” (Antibiotics, 2021).
Entries after “also recorded” stand apart in the source; their conditions may differ.

How the values were obtained:
S. aureus RnpA = target: T1, S. aureus RnpA (Staphylococcus aureus, UniProt P0A0H5); assay: In vitro RnpA mRNA degradation assay (RNase Alert FRET substrate); format: biochemical; details: for IC50: in vitro RnpA-mediated RNA degradation, read-out: mRNA IC50; for RNA degradation inhibition in time course study: 50 µM compound, 30 min at 37 °C, Figure 2A
T1 construct: made in house; host or cells: E. coli BL21 (DE3)
T1 sequence (P0A0H5 1-117): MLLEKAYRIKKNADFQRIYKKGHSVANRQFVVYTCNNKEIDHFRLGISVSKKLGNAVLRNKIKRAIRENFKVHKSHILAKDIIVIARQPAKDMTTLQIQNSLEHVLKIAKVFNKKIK
Procedure: (§1) His-tagged RnpA was purified as previously described. E. coli BL21 (DE3) cells harboring plasmid pEXP5-nt containing a hexahistidine tag fused to the N-terminus of S.aureus RnpA coding region were grown in LB supplemented with 50 µg mL^−1 ampicillin to OD600 = 0.6 and induced with 1mM isopropyl β-D-1-thiogalactopyranoside (IPTG) for three hours to induce protein expression. […] Cells were mechanically lysed by three passes at 18,000 psi through a French Pressure Cell Press (SLM-Aminco; Pittsford, NY, USA) and cell debris was removed by centrifugation at 17,000× g for 10 min at 4 °C. Supernatants were collected, filtered through a 0.2 micron syringe filter, then loaded onto a 5 mL HisPur cobalt column (ThermoFisher Scientific, Waltham, MA, U.S.A.) using the BioRad Maximizer Duo-Flow Medium Pressure Chromatography System. Protein was eluted using an imidazole gradient (80 mM to 500 mM). Fractions were assessed for RnpA presence and purity via SDS-PAGE analysis, Coomassie staining and Western blotting using an anti-His antibody (Invitrogen; Grand Island, NY, USA).
RnpA-mediated degradation was assessed using the Rnase Alert QC System (Thermofisher Scientific). 20 pmol of His-RnpA was combined with 0.4 μM (final concentration) FRET substrate and either DMSO (negative control) or compound ≤500 µM in 1× Rnase Alert Buffer. Reactions were assembled in 96-well PCR plates (BioRad) and incubated at 37 °C for 30 min in the BioRad CFX 96 Connect Real Time instrument, measuring fluorescence every 2 min at 490 nm excitation/520 nm emission. Percent inhibition of each compound was calculated at the 30 min time-point based on the following formula: (RFU of compound treated RnpA/RFU of DMSO-treated RnpA) × 100.

RNase P (RnpA + rnpB) = target: T2, RNase P (RnpA + rnpB) (Staphylococcus aureus, UniProt P0A0H5); assay: In vitro ptRNA^Tyr processing assay with reconstituted RNase P; format: biochemical; details: for IC50: in vitro ptRNA^Tyr processing, average of at least two tests, read-out: ptRNA IC50
T2 construct: made in house; host or cells: E. coli BL21 (DE3)
T2 sequence (P0A0H5 1-117): T1 sequence (P0A0H5 1-117)
Procedure: as §1
rnpB and RNA substrates (spa, ptRNA^Tyr) for RnpA functional assays, as well as mature tRNA were synthesized in vitro, as previously described. Each gene was PCR amplified using S. aureus UAMS-1 chromosomal DNA as a template and the corresponding oligonucleotide primer pairs, in which the forward primers contained an RNA polymerase T7 promoter sequence. The following primer pairs were used in this study (T7 promoter underlined): T7-rnpB forward—[…] and rnpB reverse—[…]; T7-ptRNA^Tyr forward—[…] and ptRNA^Tyr reverse—TGGTGGAG GGGGGCAGATTC; T7-spa forward—[…] CGACGTCCAG and spa reverse—[…]. Resulting PCR products were analyzed on a 0.8% agarose gel and purified using the Qiagen QIAquick Gel Extraction kit, according to the manufacturer’s instructions. In vitro transcription was performed using the TranscriptAid T7 High Yield Transcription kit (Fermentas; Burlington, ON, Canada) following manufacturer’s instructions. Following in vitro transcription, the RNA was treated with DNase I for 90 min and re-purified using the Qiagen RNeasy Mini kit. RNA was quantified using a NanoDrop2000 spectrophotometer.
S.aureus Rnase P activity assays were performed as previously described. Briefly, ptRNA^Tyr and rnpB RNA was denatured by heating to 95 °C for 5 min then slow cooled to room temperature. RNA species were then combined with 2× low salt buffer (50 mM Tris-HCl pH 8.0, 5 mM MgCl2) and incubated for 5 min at 37 °C. Rnase P was reconstituted by mixing an equal molar ratio of His-RnpA and rnpB for 15 min at 37 °C. […] Then, 5 pmol ptRNA^Tyr was added to each reaction and incubated for an additional 30 min at 37 °C. Reactions were stopped with 2× RNA loading dye (Thermo Scientific) and heating to 65 °C for 10 min. Samples were electrophoresed on a 7M urea/8% polyacrylamide gel then stained with 0.5 µg mL^−1 ethidium bromide. The BioRad EZ Gel Doc imaging system was used to visualize the RNA and relative abundance of mature tRNA^Tyr in the DMSO control or in the samples containing compound and analyzed using BioRad Image Lab densitometry software. The percent inhibitory activity of each compound was calculated using the following equation: (% experimental processing/% processing negative control) × 100.

S. aureus UAMS-1 = assay: Fractional inhibitory concentration (FIC) testing with mupirocin; format: cell-based, Staphylococcus aureus; details: for MIC: Staphylococcus aureus, UAMS1, compound alone, read-out: Cpd MIC, Dosed-Individually; for Antimicrobial interaction with mupirocin (class by FIC index) / FIC Index: compound + mupirocin; for Cpd MIC, Dosed-Combination: compound MIC in combination with mupirocin
Procedure: Fractional inhibitory concentration (FIC) testing was performed, as previously described. Briefly, each well of a 96-well microtiter plate was inoculated with 10^4 CFU of S. aureus UAMS-1 [42]. Each row of the plate was supplemented with two-fold increasing concentrations of mupirocin (0 µg mL^−1 to 2 µg mL^−1) whereas each column contained two-fold increasing concentrations of putative RnpA inhibitor compound (0.03, 0.0625, 0.125, 0.25, 0.5, 1, or 2× MIC). […] The FIC index was defined by the following formula: FIC = (MIC of Drug A in Combination/MIC of Drug A Alone) + (MIC of Drug B in Combination/MIC of Drug B Alone). A synergistic interaction was defined as a FIC value of ≤0.5, an additive interaction as 0.5–1, no interaction as 1–4 and antagonistic interaction as FIC ≥ 4, as described.

SMILES | Inhibition of in vitro RnpA-mediated RNA degradation (in words) (S. aureus RnpA) | IC50 (S. aureus RnpA) | Inhibition of in vitro RnpA ptRNA processing (in words) (RNase P (RnpA + rnpB)) | IC50 (RNase P (RnpA + rnpB)) | MIC (S. aureus UAMS-1) | Antimicrobial interaction with mupirocin (class by FIC index) (S. aureus UAMS-1) | FIC Index (S. aureus UAMS-1) | Cpd MIC, Dosed-Combination (S. aureus UAMS-1) | RNA degradation inhibition in time course study (S. aureus RnpA) | Conversion of precursor tRNA to mature tRNA (RNase P (RnpA + rnpB); 0, 50, 250 or 500 µM, urea-PAGE, Figure 2B)
O=C(Nc1cccc(C(F)(F)F)c1)c1c(NC(=O)C(F)(F)F)sc2c1CCCC2 [RNP0016] | good inhibitory properties | 45 µM | good inhibitory properties | 52 µM | 3.12 µM | additive (a value of 0.5 < FIC ≤ 1 indicates additive effect) | 1 | 1.56 µM | – | –
O=C(Nc1ccc(F)cc1)c1c(NC(=O)C(F)(F)F)sc2c1CCCC2 [RNP0014] | strongest inhibitor | 6.4 µM | weak effects; also recorded: weak or no inhibitory activity | 138 µM | 6.25 µM | synergistic (FIC ≤ 0.5 indicates synergistic activity) | 0.5 | 1.56 µM | varying degrees of RNA degradation inhibition | –
Cc1cccc(NC(=O)c2c(NC(=O)C(F)(F)F)sc3c2CCCCC3)c1 [RNP0010] | least effective | 224 µM | only inhibited the ptRNA processing function | 70 µM | 3.12 µM | – | 0.75 | 0.78 µM | – | –
O=C(Nc1ccc(C(F)(F)F)cc1)c1c(NC(=O)C(F)(F)F)sc2c1CCCC2 [RNP0015] | good inhibitory properties | 43 µM | greatest inhibitory activity; also recorded: good inhibitory properties | 46 µM | 0.78 µM | – | 1.5 | 0.78 µM | – | –
O=C(Nc1cccc(F)c1)c1c(NC(=O)C(F)(F)F)sc2c1CCCCC2 [RNP0008] | least effective | 245 µM | only inhibited the ptRNA processing function | 78 µM | 0.391 µM | – | 1 | 0.196 µM | varying degrees of RNA degradation inhibition | –
O=C(Nc1ccc(C(F)(F)F)cc1)c1c(NC(=O)C(F)(F)F)sc2c1CCCCC2 [RNP0012] | good inhibitory properties | 68 µM | good inhibitory properties | 66 µM | 0.19 µM | additive (a value of 0.5 < FIC ≤ 1 indicates additive effect) | 0.75 | 0.048 µM | varying degrees of RNA degradation inhibition | reduced conversion of precursor tRNA to mature tRNA in a dose dependent manner
O=C(Nc1ccc(F)cc1)c1c(NC(=O)C(F)(F)F)sc2c1CCCCC2 [RNP0009] | least effective | > 250 µM | only inhibited the ptRNA processing function | 79 µM | 0.78 µM | – | 0.75 | 0.196 µM | – | –
O=C(Nc1cccc(F)c1)c1c(NC(=O)C(F)(F)F)sc2c1CCCC2 [RNP0013] | good inhibitory properties | 50 µM | – | 95 µM | 6.25 µM | – | 0.75 | 1.56 µM | – | –
O=C(Nc1cccc(C(F)(F)F)c1)c1c(NC(=O)C(F)(F)F)sc2c1CCCCC2 [RNP0011] | good inhibitory properties | 59 µM | good inhibitory properties | 57 µM | 0.391 µM | – | 0.75 | 0.098 µM | – | –
O=C(Nc1cccc(Cl)c1)c1c(NC(=O)C(F)(F)F)sc2c1CCCCC2 [RNP0007] | least effective; also recorded: weakly inhibited | 175 µM | weakly inhibited | 98 µM | 0.391 µM | – | 0.75 | 0.098 µM | varying degrees of RNA degradation inhibition | –
